Laboratory results taken from the NIST ThermoML archive (doi:10.1021/je900550v).

Conditions: 101.33 kPa, Liquid; for mass density: Vibrating tube method; for speed of sound: Pulse-echo method

C[NH2+]CCO.O=C[O-] [2-hydroxy-N-methylethanaminium formate]
Conditions	mass density [kg/m3]	speed of sound [m/s]	viscosity [mPa·s]
293.15 K	1131.04	–	–
293.4 K	1130.9	1824.6	–
293.65 K	1130.76	1824.1	–
293.9 K	1130.62	1823.6	–
294.15 K	1130.48	1823.2	–
294.4 K	1130.34	1822.7	–
294.65 K	1130.2	1822.2	–
294.9 K	1130.06	1821.7	–
295.15 K	1129.92	1821.2	–
295.4 K	1129.78	1820.7	–
295.65 K	1129.64	1820.2	23.22
295.9 K	1129.5	1819.7	–
296.15 K	1129.37	1819.2	–
296.4 K	1129.23	1818.7	–
296.65 K	1129.08	1818.2	–
296.9 K	1128.94	1817.7	–
297.15 K	1128.8	1817.3	–
297.4 K	1128.66	1816.8	–
297.65 K	1128.52	1816.3	–
297.9 K	1128.38	1815.8	–
298.15 K	1128.25	1815.3	20.27
298.4 K	1128.11	1814.8	–
298.65 K	1127.96	1814.3	–
298.9 K	1127.83	1813.8	–
299.15 K	1127.69	1813.4	–
299.4 K	1127.55	1812.9	–
299.65 K	1127.41	1812.4	–
299.9 K	1127.27	1811.9	–
300.15 K	1127.13	1811.4	–
300.4 K	1126.99	1810.9	–
300.65 K	1126.85	1810.4	18.37
300.9 K	1126.71	1809.9	–
301.15 K	1126.57	1809.5	–
301.4 K	1126.43	1809	–
301.65 K	1126.29	1808.5	–
301.9 K	1126.15	1808	–
302.15 K	1126.02	1807.5	–
302.4 K	1125.87	1807	–
302.65 K	1125.73	1806.5	–
302.9 K	1125.59	1806	–
303.15 K	1125.45	1805.6	16.4
303.4 K	1125.32	1805.1	–
303.65 K	1125.18	1804.6	–
303.9 K	1125.04	1804.1	–
304.15 K	1124.89	1803.6	–
304.4 K	1124.76	1803.2	–
304.65 K	1124.62	1802.7	–
304.91 K	1124.48	1802.2	–
305.15 K	1124.34	1801.7	15.1
305.4 K	1124.2	1801.2	–
305.65 K	1124.06	1800.7	–
305.9 K	1123.92	1800.2	–
306.15 K	1123.78	1799.7	–
306.4 K	1123.64	1799.3	–
306.65 K	1123.5	1798.8	–
306.9 K	1123.36	1798.3	–
307.15 K	1123.22	1797.8	–
307.4 K	1123.08	1797.3	–
307.65 K	1122.94	1796.8	–
307.9 K	1122.8	1796.3	–
